In patent US12012417B2, “N-substituted tetrahydrothienopyridine derivatives and uses thereof” (NOVARTIS AG, priority 2018, dated 2024):

What was measured:
[1] = tested on: Dengue 2 virus MY97-10340; experiment: High-content imaging cell-based flavivirus immunodetection (HCl-CFI) assay, Dengue 2; conditions: Dengue virus, A549, 48 h, read-out: Dengue 2 virus MY97-10340 in A549 using HCl [Inhibitor/IC50] Qualified AC50, A549 cells, MOI 0.3, 48 h, viral E protein expression
In short: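 A549 cells infected at MOI 0.3, treated with 3-fold, 10-point compound dilutions for 48 h. After paraformaldehyde fixation, viral E protein immunostained with 4G2 antibody and nuclei counterstained; imaged by high-content imaging. EC50 = concentration reducing E protein expression by 50%, from dose-response curves.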

[2] = tested on: Dengue 3 virus MY05-34640-WT-C6/36; experiment: High-content imaging cell-based flavivirus immunodetection (HCl-CFI) assay, Dengue 3; conditions: Dengue virus, A549, 48 h, read-out: Dengue 3 virus MY05-34640-WT-C6/36 in A549 using HCl [Inhibitor/IC50] Qualified AC50
[3] = tested on: Dengue 1 virus MY97-10245; experiment: High-content imaging cell-based flavivirus immunodetection (HCl-CFI) assay, Dengue 1; conditions: Dengue virus, A549, 48 h, read-out: Dengue 1 virus MY97-10245 in A549 using HCl [Inhibitor/IC50] Qualified AC50
[4] = tested on: DENV-2 (strain TSV01); experiment: Antiviral in vivo efficacy in dengue mouse model; conditions: oral gavage, 3 consecutive days, AG129 mice, qRT-PCR
Procedure: Antiviral In Vivo Efficacy in Dengue Mouse Model
AG129 mice (lacking IFN-α/β and IFN-γ receptors, (Schul, W. et al. 2007. J. Infect. Dis., 195, 665-74)) was obtained from Biological Resource Center (BRC), Singapore. Male and female AG129 mice aged 8 to 14 weeks (weighed 20-30 grams, n=6 per group) were used. Infection of DENV-2 (strain TSV01) was given intraperitoneally (500 μL, 1.4×10^7 pfu/mL). The DENV-2 strain TSVO1 was used in the mouse model and was propagated in C6/36 mosquito cells. Compounds were formulated (% w/w) in either 0.5% methylcellulose, 0.5% Tween and 99.0% deionized water or 20% polyethylene glycol (PEG300), 10% Cremophor RH40, and 70% 100 mM pH 3 citrate buffer (% v/v). Compounds were dosed immediately after infection through oral gavage for 3 consecutive days. Terminal blood sample (anticoagulant: K2EDTA) was obtained for viremia read-out by qRT-PCR as previously described (Santiago, G. A., et al. 2013. PLoS Negl. Trop. Dis., 7, e2311).

[5] = tested on: Dengue 4 virus MY01-22713; experiment: High-content imaging cell-based flavivirus immunodetection (HCl-CFI) assay, Dengue 4; conditions: Dengue virus, A549, 48 h, read-out: Dengue 4 virus MY01-22713 in A549 using HCl [Inhibitor/IC50] Qualified AC50, A549 cells, 48 h, viral E protein expression
[6] = tested on: DENV-2 (strain TSV01); experiment: Antiviral in vivo efficacy in dengue mouse model; conditions: 180 mg/kg single dose, oral gavage, AG129 mice, qRT-PCR

SMILES	EC50 [1]	EC50 [2]	EC50 [3]	Log DENV-2 viremia reduction ([4]; 30 mg/kg b.i.d.)	EC50 [5]	Log DENV-2 viremia reduction ([4]; 100 mg/kg b.i.d.)	Log DENV-2 viremia reduction ([4]; 100 mg/kg q.d.)	Log DENV-2 viremia reduction ([4]; 10 mg/kg b.i.d.)	Log DENV-2 viremia reduction ([4]; 60 mg/kg q.d.)	Log DENV-2 viremia reduction [6]
CC1(C)Cc2sc(NC(=O)Cc3ccc(S(N)(=O)=O)cc3)c(C#N)c2CN1CC1CC(F)(F)C1 [Example 77, N-(3-cyano-5-((3,3-difluorocyclobutyl)methyl)-6,6-dimethyl-4,5,6,7-tetrahydrothieno[3,2-c]pyridin-2-yl)-2-(4-sulfamoylphenyl)acetamide]	< 100 nM	< 100 nM	100 to 1000 nM	0.62 Log	< 100 nM	–	–	–	–	–
N#Cc1c(NC(=O)Cc2ccc(S(N)(=O)=O)cc2)sc2c1CCN(Cc1cccc(F)c1)C2 [Example 100, N-(3-cyano-6-(3-fluorobenzyl)-4,5,6,7-tetrahydrothieno[2,3-c]pyridin-2-yl)-2-(4-sulfamoylphenyl)acetamide]	–	–	–	–	–	1.50 Log	–	–	–	–
CC1Cc2sc(NC(=O)Cc3ccc(S(N)(=O)=O)cc3)c(C#N)c2CN1Cc1cccc(F)c1 (stereo not drawn) [Example 53, N-(3-cyano-5-(3-fluorobenzyl)-6-methyl-4,5,6,7-tetrahydrothieno[3,2-c]pyridin-2-yl)-2-(4-sulfamoylphenyl)acetamide]	< 100 nM	< 100 nM	100 to 1000 nM	0.80 Log	< 100 nM	1.78 Log	1.06 Log	–	–	–
CC1(C)Cc2sc(NC(=O)Cc3ccc(S(N)(=O)=O)cc3)c(C#N)c2CN1CC1CCCCC1 [Example 71, N-(3-cyano-5-(cyclohexylmethyl)-6,6-dimethyl-4,5,6,7-tetrahydrothieno[3,2-c]pyridin-2-yl)-2-(4-sulfamoylphenyl)acetamide]	< 100 nM	< 100 nM	< 100 nM	1.45 Log	< 100 nM	3.0 Log	–	0.51 Log	1.54 Log	1.49 Log
N#Cc1c(NC(=O)Cc2ccc(S(N)(=O)=O)cc2)sc2c1CCN(Cc1cc(Cl)ccc1Cl)C2 [Example 109, N-(3-cyano-6-(2,5-dichlorobenzyl)-4,5,6,7-tetrahydrothieno[2,3-c]pyridin-2-yl)-2-(4-sulfamoylphenyl)acetamide]	100 to 1000 nM	100 to 1000 nM	> 1000 nM	–	100 to 1000 nM	1.60 Log	–	–	–	–
